These results are taken from patent publication US9512139B2, “Conformationally constrained, fully synthetic macrocyclic compounds” (POLYPHOR AG, priority 2009, dated 2016).

The conditions of series [1]: amide bond.
The nature of series [2]: in vitro. The class given is in vitro ADME, human. The following applies: human, plasma, 10 µM.
The nature of series [3]: in vitro. The class given is in vitro ADME, mouse. The following applies: both, CD-1, mouse, plasma, 10 µM.
Series [4] is described as follows: Metabolic stability assay, human microsomes. The class given is in vitro ADME. The following applies: both, human, microsomes, 10 µM.
Series [5] can be described thus: Metabolic stability assay, CD-1 mouse microsomes. The following applies: both, CD-1, mouse, microsomes, 10 µM. The class given is in vitro ADME.

SMILES strings stand for the structures. Read-outs that look alike come from different tables or passages of the source. Bounds are passed on as bounds.
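Wherever Plasma Stability 240 min mouse [% remain.] is given: sodium citrate stabilized mouse plasma, parent compound quantified by HPLC/MS/MS relative to its peak area at time zero, run in triplicate.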
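Wherever Plasma Stability T½ [min] mouse is given: sodium citrate stabilized mouse plasma, parent compound quantified by HPLC/MS/MS relative to its peak area at time zero, run in triplicate.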

With `CN1CC(=O)N2CCN(C(=O)OC(C)(C)C)C[C@@H]2COc2ccc(F)cc2C(=O)N(C)[C@@H](C(=O)OCc2ccccc2)CCC1=O`, in series [1] (from CNCC(=O)N1CCN(C(=O)OC(C)(C)C)C[C@@H]1COc1ccc(F)cc1C(=O)N(C)[C@H](CCC(=O)O)C(=O)OCc1ccccc1, T3P / i-Pr2NEt, CH2Cl2, 10.4 mM), the ring closure, yield of all isomers is 96%.
In series [1] (from CNCC(=O)N1C[C@@H](NC(=O)OC(C)(C)C)C[C@H]1COc1ccc(F)cc1C(=O)N(C)[C@H](CCC(=O)O)C(=O)OCc1ccccc1, T3P / i-Pr2NEt, CH2Cl2, 10.8 mM), `CN1CC(=O)N2C[C@@H](NC(=O)OC(C)(C)C)C[C@H]2COc2ccc(F)cc2C(=O)N(C)[C@@H](C(=O)OCc2ccccc2)CCC1=O` registered a ring closure, yield of all isomers of 92%.
Turning to `CN1CC(=O)N2C[C@@H](NC(=O)OC(C)(C)C)C[C@H]2COc2ccc(F)cc2C(=O)N(C)[C@H](C(=O)OCc2ccccc2)CCC1=O`, the ring closure, yield of all isomers in series [1] (from CNCC(=O)N1C[C@@H](NC(=O)OC(C)(C)C)C[C@H]1COc1ccc(F)cc1C(=O)N(C)[C@@H](CCC(=O)O)C(=O)OCc1ccccc1, FDPP, DMF, 8.44 mM, 25.0 °C, 20.0 h) came to 94%.
`CN1CC(=O)N2C[C@H](NC(=O)OC(C)(C)C)C[C@H]2COc2ccc(F)cc2C(=O)N(C)[C@@H](C(=O)OCc2ccccc2)CCC1=O`: the ring closure, yield of all isomers in series [1] (from CNCC(=O)N1C[C@H](NC(=O)OC(C)(C)C)C[C@H]1COc1ccc(F)cc1C(=O)N(C)[C@H](CCC(=O)O)C(=O)OCc1ccccc1, T3P / i-Pr2NEt, CH2Cl2, 5.08 mM) was determined as 60%.
`CN1CC(=O)N2C[C@H](NC(=O)OC(C)(C)C)C[C@H]2COc2ccc(F)cc2C(=O)N(C)[C@H](C(=O)OCc2ccccc2)CCC1=O`: in series [1] (from CNCC(=O)N1C[C@H](NC(=O)OC(C)(C)C)C[C@H]1COc1ccc(F)cc1C(=O)N(C)[C@@H](CCC(=O)O)C(=O)OCc1ccccc1, T3P, CH2Cl2, 10.5 mM, 25.0 °C, 20.0 h), the ring closure, yield of all isomers was determined as 87%.
For `CN1CC(=O)N2C[C@H](NC(=O)OC(C)(C)C)C[C@H]2COc2ccc(cc2)C(=O)N(C)[C@H](C(=O)OCc2ccccc2)CCC1=O`, the ring closure, yield of all isomers in series [1] (from CNCC(=O)N1C[C@H](NC(=O)OC(C)(C)C)C[C@H]1COc1ccc(C(=O)N(C)[C@@H](CCC(=O)O)C(=O)OCc2ccccc2)cc1, T3P, i-Pr2NEt, CH2Cl2, 1.05 mM, 3.0 h) was found to be 54%.
In turn, `CN1CC(=O)N2C[C@H](NC(=O)OC(C)(C)C)C[C@H]2COc2ccsc2C(=O)N(C)[C@H](C(=O)OCc2ccccc2)CCC1=O` displayed a ring closure, yield of all isomers in series [1] (from CNCC(=O)N1C[C@H](NC(=O)OC(C)(C)C)C[C@H]1COc1ccsc1C(=O)N(C)[C@@H](CCC(=O)O)C(=O)OCc1ccccc1, T3P, CH2Cl2, 10.0 mM, 25.0 °C, 1.0 h) of 69%.
In the case of `CN1CC(=O)N2C[C@H](NC(=O)OC(C)(C)C)C[C@H]2CSc2cccc(c2)C(=O)N(C)[C@H](C(=O)OCc2ccccc2)CCC1=O`, in series [1] (from CNCC(=O)N1C[C@H](NC(=O)OC(C)(C)C)C[C@H]1CSc1cccc(C(=O)N(C)[C@@H](CCC(=O)O)C(=O)OCc2ccccc2)c1, T3P, i-Pr2NEt, CH2Cl2, 10.0 mM, 25.0 °C, 3.0 h), the ring closure, yield of all isomers stood at 57%.
`CN1CCC(=O)N2C[C@H](NC(=O)OC(C)(C)C)C[C@H]2COc2ccc(F)cc2C(=O)N(C)[C@H](C(=O)OCc2ccccc2)CCC1=O` came in with a ring closure, yield of all isomers in series [1] (from CNCCC(=O)N1C[C@H](NC(=O)OC(C)(C)C)C[C@H]1COc1ccc(F)cc1C(=O)N(C)[C@@H](CCC(=O)O)C(=O)OCc1ccccc1, T3P / i-Pr2NEt, CH2Cl2, 10.6 mM) of 82%.
`CN1CCC[C@H](NC(=O)OCc2ccccc2)C(=O)N2C[C@@H](NC(=O)OCC[Si](C)(C)C)C[C@H]2COc2cccc(c2)C1=O` gave a ring closure, yield of all isomers in series [1] (from CN(CCC[C@H](NC(=O)OCc1ccccc1)C(=O)O)C(=O)c1cccc(OC[C@@H]2C[C@H](NC(=O)OCC[Si](C)(C)C)CN2)c1, T3P, CH2Cl2, 9.4 mM) of 54%.
In series [1] (from CN(CCC[C@H](NC(=O)OCc1ccccc1)C(=O)O)C(=O)c1cccc(OC[C@@H]2C[C@H](OCc3ccc(Br)cc3)CN2)c1, T3P, CH2Cl2, 5.5 mM, 25.0 °C, 20.0 h), `CN1CCC[C@H](NC(=O)OCc2ccccc2)C(=O)N2C[C@@H](OCc3ccc(Br)cc3)C[C@H]2COc2cccc(c2)C1=O` gave a ring closure, yield of all isomers of 57%.
As to `CN1CCC[C@H](NC(=O)OCc2ccccc2)C(=O)N2C[C@@H](OCc3ccc(Br)cc3)C[C@H]2CSc2cccc(c2)C1=O`, in series [1] (from CN(CCC[C@H](NC(=O)OCc1ccccc1)C(=O)O)C(=O)c1cccc(SC[C@@H]2C[C@H](OCc3ccc(Br)cc3)CN2)c1, T3P, CH2Cl2, 1.96 mM, 25.0 °C, 3.0 h), the ring closure, yield of all isomers stood at 79%.
`CN1CCC[C@H](NC(=O)OCc2ccccc2)C(=O)N2C[C@@H](Oc3ccccc3)C[C@H]2COc2cccc(c2)C1=O` showed a ring closure, yield of all isomers in series [1] (from CN(CCC[C@H](NC(=O)OCc1ccccc1)C(=O)O)C(=O)c1cccc(OC[C@@H]2C[C@H](Oc3ccccc3)CN2)c1, FDPP, DMF, 5.7 mM, 25.0 °C, 20.0 h) of 63%.
In turn, `CN1CC[C@H](NC(=O)OCc2ccccc2)C(=O)N2C[C@@H](NC(=O)OCC[Si](C)(C)C)C[C@H]2COc2cccc(c2)C1=O` showed a ring closure, yield of all isomers in series [1] (from CN(CC[C@H](NC(=O)OCc1ccccc1)C(=O)O)C(=O)c1cccc(OC[C@@H]2C[C@H](NC(=O)OCC[Si](C)(C)C)CN2)c1, FDPP, DMF, 0.97 mM) of 43%.
In turn, `CN1C[C@@H](NC(=O)OCc2ccccc2)C(=O)N(C)CC(=O)N2C[C@@H](NC(=O)OC(C)(C)C)C[C@H]2COc2cccc(c2)C1=O` had a ring closure, yield of all isomers in series [1] (from CNCC(=O)N1C[C@@H](NC(=O)OC(C)(C)C)C[C@H]1COc1cccc(C(=O)N(C)C[C@@H](NC(=O)OCc2ccccc2)C(=O)O)c1, FDPP, DMF, 1.0 mM, 60.0 °C, 20.0 h) of 78%.
Take `CN1C[C@H](NC(=O)OCc2ccccc2)C(=O)N(C)CC(=O)N2C[C@@H](NC(=O)OC(C)(C)C)C[C@H]2COc2cccc(c2)C1=O`: the ring closure, yield of all isomers was determined as 73% in series [1] (from CNCC(=O)N1C[C@@H](NC(=O)OC(C)(C)C)C[C@H]1COc1cccc(C(=O)N(C)C[C@H](NC(=O)OCc2ccccc2)C(=O)O)c1, T3P / i-Pr2NEt, CH2Cl2, 0.96 mM) and 39% in series [1] (from CNCC(=O)N1C[C@@H](NC(=O)OC(C)(C)C)C[C@H]1COc1cccc(C(=O)N(C)C[C@H](NC(=O)OCc2ccccc2)C(=O)O)c1, T3P / i-Pr2NEt, CH2Cl2, 1.0 mM).
With `CN1C[C@H](NC(=O)OCc2ccccc2)C(=O)N(C)CC(=O)N2C[C@@H](NC(=O)OCC[Si](C)(C)C)C[C@H]2COc2cccc(c2)C1=O`, the ring closure, yield of all isomers in series [1] (from CN(C[C@H](NC(=O)OCc1ccccc1)C(=O)N(C)CC(=O)O)C(=O)c1cccc(OC[C@@H]2C[C@H](NC(=O)OCC[Si](C)(C)C)CN2)c1, FDPP, DMF, 9.73 mM) stood at 63%.
`CN1C[C@H](NC(=O)OCc2ccccc2)C(=O)N(C)CC(=O)N2C[C@H](NC(=O)OCC[Si](C)(C)C)C[C@H]2COc2cccc(c2)C1=O` returned a ring closure, yield of all isomers in series [1] (from CN(C[C@H](NC(=O)OCc1ccccc1)C(=O)N(C)CC(=O)O)C(=O)c1cccc(OC[C@@H]2C[C@@H](NC(=O)OCC[Si](C)(C)C)CN2)c1, FDPP, DMF, 10.16 mM) of 68%.
In series [1] (from CNCC(=O)N1C[C@H](NC(=O)OC(C)(C)C)C[C@H]1COc1ccc2c(c1)c(C(=O)N(C)[C@@H](CCC(=O)O)C(=O)OCc1ccccc1)c(C)n2C, T3P, CH2Cl2, 9.85 mM), `Cc1c2c3cc(ccc3n1C)OC[C@@H]1C[C@@H](NC(=O)OC(C)(C)C)CN1C(=O)CN(C)C(=O)CC[C@@H](C(=O)OCc1ccccc1)N(C)C2=O` gave a ring closure, yield of all isomers of 58%.
For the compound `O=C(N[C@H]1CCCNC(=O)c2cccc(c2)OC[C@@H]2C[C@H](Oc3ccccc3)CN2C1=O)OCc1ccccc1`, the ring closure, yield of all isomers in series [1] (from O=C(N[C@@H](CCCNC(=O)c1cccc(OC[C@@H]2C[C@H](Oc3ccccc3)CN2)c1)C(=O)O)OCc1ccccc1, HATU, HOAt, i-Pr2NEt, DMF, 0.98 mM, 25.0 °C, 20.0 h) came out at 88%.
`O=C1NCCC[C@H](O)C(=O)N2C[C@@H](OCc3ccc(Br)cc3)C[C@H]2COc2cccc1c2`: in series [1] (from O=C(NCCC[C@H](O)C(=O)O)c1cccc(OC[C@@H]2C[C@H](OCc3ccc(Br)cc3)CN2)c1, T3P, i-Pr2NEt, CH2Cl2, 1.0 mM), the ring closure, yield of all isomers amounted to 47%.
`CN1C[C@H](NC(=O)OCc2ccccc2)C(=O)N(C)CC(=O)N2C[C@@H](NC(=O)OC(C)(C)C)C[C@H]2COc2cncc(c2)C1=O` [Ex. 272, benzyl N-[(4S,6S,13S)-6-[(tert-butoxycarbonyl)amino]-11,15-dimethyl-9,12,16-trioxo-2-oxa-8,11,15,19-tetraazatricyclo[15.3.1.0^4,8]henicosa-1(21),17,19-trien-13-yl]carbamate] returned a ring closure, yield of all isomers in series [1] (from CNCC(=O)N1C[C@@H](NC(=O)OC(C)(C)C)C[C@H]1COc1cncc(C(=O)N(C)C[C@H](NC(=O)OCc2ccccc2)C(=O)O)c1, T3P, i-Pr2NEt, CH2Cl2, 9.75 mM) of 38%. The compound also registered a Plasma Stability T½ [min] hum in series [2] of over 240 min. In series [2] (4 h), the “Plasma Stability 240 min hum [% remain.]” value is given as 95 % remain. For the same compound, in series [3], the Plasma Stability T½ [min] mouse is over 240 min. For the same compound, the “Plasma Stability 240 min mouse [% remain.]” value in series [3] (4 h) amounted to 92 % remain. Further, the Metabolic Stability T½ [min] hum in series [4] was over 60 min. Moreover, the “Metabolic Stability 60 min hum [% remain.]” value in series [4] (1 h) is recorded as 65 % remain. In addition, the Metabolic Stability T½ [min] mouse in series [5] is over 60 min. For the same compound, the “Metabolic Stability 60 min mouse [% remain.]” value in series [5] (1 h) worked out at 81 % remain.
